{"source": "paper PMC7998748", "about": "“A Unique Acylated Flavonol Glycoside from Prunus persica (L.) var. Florida Prince: A New Solid Lipid Nanoparticle Cosmeceutical Formulation for Skincare” (Antioxidants, 2021)", "key": {"[1]": {"assay": "β-carotene bleaching assay", "settings": "after 30 min", "source_text": "(§1) The DPPH assay was peformed using the method of Yardpiroon et al., Vitamin C was used as a positive control. The ABTS assay followed the method of Re et al., [40], Vitamin C was used as a standard. The β-carotene bleaching assay used the method described by Soulef et al., [14] in the presence of the positive control BHT. The value for each test sample was presented as the inhibition curve at 50% or IC50."}, "ABTS assay": {"assay": "ABTS assay", "source_text": "as §1"}, "mushroom tyrosinase": {"target": "mushroom tyrosinase (Agaricus bisporus, UniProt C7FF04)", "sequence (G1K3P4 entry or part of it)": "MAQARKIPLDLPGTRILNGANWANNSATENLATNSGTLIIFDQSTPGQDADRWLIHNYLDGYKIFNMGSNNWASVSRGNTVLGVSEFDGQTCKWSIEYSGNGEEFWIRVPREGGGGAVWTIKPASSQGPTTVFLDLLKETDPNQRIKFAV", "sequence (C7FF04 1-392)": "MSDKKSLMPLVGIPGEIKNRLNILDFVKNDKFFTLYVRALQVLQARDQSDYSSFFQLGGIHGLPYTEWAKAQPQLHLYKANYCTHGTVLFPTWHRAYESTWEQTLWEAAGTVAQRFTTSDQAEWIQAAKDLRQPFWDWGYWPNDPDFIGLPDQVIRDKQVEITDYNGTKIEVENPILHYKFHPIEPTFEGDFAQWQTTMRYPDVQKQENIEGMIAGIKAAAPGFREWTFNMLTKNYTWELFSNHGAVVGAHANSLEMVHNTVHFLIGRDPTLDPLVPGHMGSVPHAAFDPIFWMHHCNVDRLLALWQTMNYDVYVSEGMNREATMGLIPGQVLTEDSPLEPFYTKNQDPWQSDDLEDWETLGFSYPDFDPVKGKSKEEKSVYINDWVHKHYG", "assay": "Anti-tyrosinase assay", "format": "biochemical", "settings": "300 μg/mL tested samples; positive control kojic acid (methods: 1.4 mg/mL)", "procedure": "For the anti-tyrosinase assay, 5600 units/mL of mushroom tyrosinase was incubated with each of the tested extracts or 1.4 mg/mL kojic acid (standard inhibitor) for 15 min at 37 °C before adding 1 mM L-DOPA as a substrate. The absorbance of the formed dopachrome was measured at 475 nm. The tested samples were used in a concentration range of 75–500 µg/mL."}, "human leukocyte elastase": {"target": "T1, human leukocyte elastase (Homo sapiens, UniProt P08246)", "T1 sequence (P08246 30-267)": "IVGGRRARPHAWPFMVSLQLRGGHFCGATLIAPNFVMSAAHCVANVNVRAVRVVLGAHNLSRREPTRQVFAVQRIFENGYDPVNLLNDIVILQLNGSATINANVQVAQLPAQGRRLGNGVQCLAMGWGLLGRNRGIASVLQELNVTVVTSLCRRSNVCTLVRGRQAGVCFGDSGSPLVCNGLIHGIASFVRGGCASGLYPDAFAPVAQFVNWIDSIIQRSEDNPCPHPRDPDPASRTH", "assay": "Anti-elastase assay", "format": "biochemical", "protocol": "The anti-aging and skin whitening activities were assessed following the methods reported by Mostafa et al.. For the anti-elastase assay, 1 μg/mL of human leukocyte elastase was incubated with HEPES buffer pH 7.5 and each of the tested extracts or 1.4 mg/mL N-Methoxysuccinyl-Ala-Ala-Pro-chloromethyl ketone (standard inhibitor) in a 96-well plate for 20 min at room temperature before the addition of 100 μL of 1 mM N-Methoxysuccinyl-Ala-Ala-Pro-Val-p-nitroanilide as a substrate. After 40 min incubation the absorbance was measured at 405 nm with a well devoid of extract/inhibitor serving as a blank. The tested samples were used in a concentration range of 25–300 µg/mL."}, "[2]": {"target": "collagenase type 1 from Clostridium histolyticum (Hathewaya histolytica (Clostridium histolyticum), UniProt Q46085)", "sequence (Q46085 41-1021 limits assumed)": "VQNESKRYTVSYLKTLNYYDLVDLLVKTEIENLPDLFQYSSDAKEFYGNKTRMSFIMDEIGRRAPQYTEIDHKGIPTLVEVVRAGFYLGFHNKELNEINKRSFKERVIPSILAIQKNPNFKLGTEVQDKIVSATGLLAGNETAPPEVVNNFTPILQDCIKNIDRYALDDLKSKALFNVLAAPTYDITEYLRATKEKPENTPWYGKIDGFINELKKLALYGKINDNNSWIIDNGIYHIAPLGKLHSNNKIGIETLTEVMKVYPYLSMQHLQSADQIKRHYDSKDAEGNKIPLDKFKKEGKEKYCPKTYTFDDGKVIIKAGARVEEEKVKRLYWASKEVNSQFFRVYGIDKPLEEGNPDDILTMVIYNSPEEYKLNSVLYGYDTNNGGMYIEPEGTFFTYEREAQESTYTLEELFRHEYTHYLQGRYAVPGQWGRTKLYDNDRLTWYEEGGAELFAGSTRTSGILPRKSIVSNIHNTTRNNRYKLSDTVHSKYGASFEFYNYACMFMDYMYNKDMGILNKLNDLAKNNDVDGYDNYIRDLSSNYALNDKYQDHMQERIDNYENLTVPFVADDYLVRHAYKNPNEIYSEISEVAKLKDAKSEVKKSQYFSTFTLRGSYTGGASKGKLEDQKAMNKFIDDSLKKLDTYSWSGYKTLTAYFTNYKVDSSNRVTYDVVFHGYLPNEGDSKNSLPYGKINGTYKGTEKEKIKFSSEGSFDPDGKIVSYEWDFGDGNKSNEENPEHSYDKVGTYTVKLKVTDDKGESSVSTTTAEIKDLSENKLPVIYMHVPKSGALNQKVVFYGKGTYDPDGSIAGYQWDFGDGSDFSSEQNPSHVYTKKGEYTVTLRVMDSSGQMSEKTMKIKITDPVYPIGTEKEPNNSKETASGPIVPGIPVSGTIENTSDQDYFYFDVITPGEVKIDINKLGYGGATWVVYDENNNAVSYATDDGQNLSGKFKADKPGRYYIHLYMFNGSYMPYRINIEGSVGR", "assay": "biochemical", "settings": "read-out: Anti-Collagenase % Inhibition"}, "DPPH assay": {"assay": "DPPH assay", "source_text": "as §1"}, "[3]": {"tested_on": "human keratinocytes cell line", "assay": "MTT cytotoxicity in human keratinocytes", "format": "cell-based", "settings": "0.0625–0.5 mg/mL, 24 h", "protocol": "(§2) The human keratinocytes cell line was obtained from VACSERA CO. (The Egyptian Company for the Production of Vaccines, Sera, and Drugs, Giza, Egypt). The MTT assay was done for PPEE and PPEE-SLNs according to the method of Mostafa et al..\n(§3) The MTT assay was used to test whether PPEE, PPEE-SLNs, and KDPAG could affect cell viability using human keratinocytes. Different concentrations of PPEE, PPEE-SLNs, extract-free-SLNs and KDPAG at 0.0625– 1mg/mL were incubated over 24 h with a human keratinocytes cell line (Figure 2). […] However, after treatment with 1 mg/mL of PPEE, PPEE-SLNS, Extract-free-SLNs, and KDPAG over 24 h, a significant reduction in cell viability of human keratinocytes was observed, 93%, 90%, 95%, and 89% of the cells survived, respectively. Thus, concentrations of PPEE, PPEE-SLNs, and KDPAG equal to or lower than 0.5 mg/mL were used for subsequent studies."}, "[4]": {"assay": "MTT cytotoxicity in human keratinocytes", "format": "cell-based", "settings": "human keratinocytes cell line, 1 mg/mL, read-out: cell viability (cells survived)", "protocol": "as §2, §3"}}}
{"smiles": "Cc1cc(C(C)(C)C)c(O)c(C(C)(C)C)c1", "note": "[BHT, reference compound]", "values": [{"measurement": "β-carotene assay IC50", "setting": "[1]", "result": "8.06 ± 0.67", "unit": "µg/mL"}]}
{"smiles": "O=C(Cc1ccc(O)c(O)c1)OC[C@H]1O[C@@H](Oc2c(-c3ccc(O)cc3)oc3cc(O)cc(O)c3c2=O)[C@H](O)[C@@H](O)[C@@H]1O", "note": "[KDPAG, kaempferol 3-O-β-^4C1-(6″-O-3,4-dihydroxyphenylacetyl glucopyranoside)]", "values": [{"measurement": "ABTS IC50", "setting": "ABTS assay", "result": "3.91 ± 1.43", "unit": "µg/mL"}, {"measurement": "inhibition at 300 µg/mL", "setting": "mushroom tyrosinase", "result": "85.7 ± 2.1", "unit": "%"}, {"measurement": "inhibition at 1400 µg/mL", "setting": "human leukocyte elastase; 300 μg/mL tested samples, positive control N-(Methoxysuccinyl)-Ala-Ala-Pro-Val-chloromethyl ketone (methods: 1.4 mg/mL)", "result": "89.2 ± 1.26", "unit": "%"}, {"measurement": "IC50", "setting": "human leukocyte elastase; positive control N-(Methoxysuccinyl)-Ala-Ala-Pro-Val-chloromethyl ketone", "result": 83.2, "unit": "µM"}, {"measurement": "inhibition at 1400 µg/mL", "setting": "[2]", "result": "91.1 ± 2.45", "unit": "%"}, {"measurement": "DPPH IC50", "setting": "DPPH assay", "result": "6.35 ± 3.40", "unit": "µg/mL"}, {"measurement": "reduction in cell viability", "setting": "[3]", "result": "no observed significant reduction"}, {"measurement": "viability at 24 h, 1 mg/mL", "setting": "[4]", "result": 89, "unit": "%"}, {"measurement": "β-carotene assay IC50", "setting": "[1]", "result": "1.73 ± 0.05", "unit": "µg/mL"}]}
{"smiles": "O=C1O[C@H]([C@@H](O)CO)C(O)=C1O", "note": "[vitamin C, reference compound]", "values": [{"measurement": "ABTS IC50", "setting": "ABTS assay", "result": "0.96 ± 0.02", "unit": "µg/mL"}, {"measurement": "DPPH IC50", "setting": "DPPH assay", "result": "2 ± 0.01", "unit": "µg/mL"}]}
